Test system: Rat Aorta
Assay: Inhibition of calcium chloride-induced contraction of depolarized rat aorta (vascular smooth muscle segments in tissue bath)
Format: cell-based, male Sprague-Dawley rats
Details: contraction induced by 1.0 mM calcium chloride; for inhibition at 10 µM / inhibition at 1 µM: Rattus norvegicus, read-out: Percent Inhibition of Contraction of Rat Aorta; for inhibition at 10 µM: at 10^-5 M
Method: The property may be observed in a test in which segments of vascular smooth muscle obtained from male Sprague-Dawley rats are suspended in physiological salt solution in a tissue bath instrumented for recording contractions. After the tissue has been equilibrated, washed in calcium-free physiological salt solution and then depolarized, 1.0 mM calcium chloride is re-added to induce contraction. […] From measuring the initial contraction as well as the second contraction in the presence of the test compound, the extent of inhibition may be calculated.

Structure (SMILES) | inhibition at 10 µM | inhibition at 1 µM (at 10^-6 M) | also measured
CCOC(=O)C1=C(C)N[C@@](C)(C#N)[C@]2(C(=O)OCC)[C@@H](O)c3ccccc3[C@H]12 (relative stereo) [Compound IIIA-1, 4a(R,S),9a(S,R)-Diethyl 1-cyano-1,3-dimethyl-2,4a,9,9a-tetrahydro-9-hydroxy-9H-indeno[2,1-c]pyridine-4,9a-dicarboxylate] | 84% | – | –
COC(=O)C1=C(C)N[C@@](C)(C#N)[C@]2(C(=O)OC)[C@@H](O)c3cc(OC)ccc3[C@H]12 (relative stereo) [Compound IIIA-2, 4a(R,S),9a(S,R)-Dimethyl 1-cyano-9-hydroxy-7-methoxy-2,4a,9,9a-tetrahydro-1,3-dimethyl-9H-indeno[2,1-c]pyridine-4,9a-dicarboxylate hydrate] | – | 4% | –
COC(=O)C1=C(C)N[C@](C)(C#N)[C@]2(C(=O)OC)[C@@H](O)c3cc(OC)ccc3[C@H]12 (relative stereo) [Compound IIIB-2, 4a(R,S),9a(S,R)-Dimethyl 1-cyano-9-hydroxy-7-methoxy-2,4a,9,9a-tetrahydro-1,3-dimethyl-9H-indeno[2,1-c]pyridine-4,9a-dicarboxylate] | – | 2% | –
CCOC(=O)C1=C(C)N[C@@](C)(C#N)[C@]2(C(=O)OCC)[C@@H](OC(C)=O)c3ccccc3[C@H]12 (relative stereo) [Compound IVA-1, 4a(R,S),9a(S,R)-Diethyl 9-acetoxy-1-cyano-2,4a,9,9a-tetrahydro-1,3-dimethyl-9H-indeno[2,1-c]pyridine-4,9a-dicarboxylate] | 62% | – | –
CCOC(=O)C1=C(C)N[C@](C)(C#N)[C@]2(C(=O)OCC)[C@@H](OC(C)=O)c3ccccc3[C@H]12 (relative stereo) [Compound IVB-1, 4a(R,S),9a(S,R)-Diethyl 9-acetoxy-1-cyano-2,4a,9,9a-tetrahydro-1,3-dimethyl-9H-indeno[2,1-c]pyridine-4,9a-dicarboxylate] | – | 6% | –
CCOC(=O)C1=C(C)N[C@@](C)(C#N)[C@]2(C(=O)OCC)[C@H](Cl)c3ccccc3[C@H]12 (relative stereo) [Compound V-1, 4a(R,S),9a(S,R)-Diethyl 9-chloro-1-cyano-2,4a,9,9a-tetrahydro-1,3-dimethyl-9H-indeno[2,1-c]pyridine-4,9a-dicarboxylate] | 24% | – | –
CCOC(=O)C1=C(C)NC(C)(C#N)[C@]2(C(=O)OCC)C(O)c3ccccc3[C@H]12 (stereo partly drawn) [Compound IIIB-1, 4a(R,S),9a(S,R)-Diethyl 1-cyano-1,3-dimethyl-2,4a,9,9a-tetrahydro-9-hydroxy-9H-indeno[2,1-c]pyridine-4,9a-dicarboxylate] | – | – | Percent Inhibition of Contraction of Rat Aorta (at 10^-6 M): 52%

Source: patent US4605660A, “Indeno[2,1-c]pyridine compounds, and their use as calcium channel blockers” (Merck & Co., Inc., priority 1985, dated 1986)
